# Data reported in patent US7563781B2, “Triazolopyrimidine derivatives” (Janssen Pharmaceutica NV, priority 2006, dated 2009).
# Experiments:
# [1] = target: T1, CAK complex (human Cdk7, human Cyclin H, MAT-1) (Homo sapiens, UniProt P50613); assay: in vitro time-resolved-fluorescence assay for the CAK kinase activity; assay type: biochemical; details: compound 20 uM; for inhibition at 20 µM: read-out: CAK % inhib
# T1 construct: made in house; host or cells: SF-900 insect cells co-infected with Flag-Cdk7 and Bab-Cyclin H baculoviruses
# T1 sequence (P50613 with tags, fused parts or gaps): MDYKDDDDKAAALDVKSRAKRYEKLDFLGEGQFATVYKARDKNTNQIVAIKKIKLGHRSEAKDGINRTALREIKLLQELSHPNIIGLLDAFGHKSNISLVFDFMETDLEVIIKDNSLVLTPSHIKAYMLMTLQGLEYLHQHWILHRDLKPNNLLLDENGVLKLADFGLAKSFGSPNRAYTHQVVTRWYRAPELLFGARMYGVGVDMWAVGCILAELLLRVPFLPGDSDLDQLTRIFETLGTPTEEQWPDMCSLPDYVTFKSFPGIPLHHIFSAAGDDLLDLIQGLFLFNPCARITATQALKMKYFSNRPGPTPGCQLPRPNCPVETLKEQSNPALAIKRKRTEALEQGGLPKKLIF
# T1 sequence (as listed by the source partner): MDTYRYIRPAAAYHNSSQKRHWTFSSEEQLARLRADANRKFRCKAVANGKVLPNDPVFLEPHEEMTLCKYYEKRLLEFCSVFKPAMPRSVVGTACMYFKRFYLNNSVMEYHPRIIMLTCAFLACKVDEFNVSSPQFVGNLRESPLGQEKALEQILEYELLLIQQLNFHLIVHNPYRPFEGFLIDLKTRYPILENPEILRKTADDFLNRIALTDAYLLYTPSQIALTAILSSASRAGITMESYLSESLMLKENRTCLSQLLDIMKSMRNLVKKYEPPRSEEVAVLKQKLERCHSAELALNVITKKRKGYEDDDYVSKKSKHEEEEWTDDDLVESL
# From the text: Cyclin Dependent Kinase Activating Kinase (CAK) is a complex of proteins that phosphorylates a well-conserved threonine (Thr) residue in all mammalian cyclin dependent kinases (cdks). The CAK complex can also phosphorylate several components of the transcriptional machinery, such as the C-terminal domain (CTD) of RNA polymerase II in the TFIIH transcription complex. The CAK complex localizes to the nucleus, and is composed of three proteins: Cdk7, Cyclin H, and MAT-1. The exemplified method teaches the cloning and expression CAK subunits, particularly a human Cdk7 and a human Cyclin H. The method of the present invention exemplified herein is equally applicable to the cloning and expression of any CAK subunit, such as variants, structural or functional polymorphisms of the human Cdk7 or the human Cyclin H, or their orthologs in other animals such as rat, mouse, pig, dog and monkey.
# The CAK complex was purified from co-infected SF-900 insect cells at 48 hours post infection by batch immunoaffinity purification. The infected cells were pelleted by centrifugation and lysed in 1/10 of the culture volume in a solution containing 50 mM Hepes pH 7.5, 10 mM MgCl2, 1 mM DTT, 10 mM Beta-Glycerol phosphate, 20 uM Na-oVO4, 0.2 mM PMSF and 1 μg/mL each of leupeptin, aprotinin, and pepstatin on ice. Cells were mechanically lysed by trituration through a 22-gauge needle followed by sonication or alternately by nitrogen cavitation. The lysed cells were centrifuged at 50,000×G for 1 hour at 4° C. to remove debris and the supernatant was applied to 1/10 volume of prewashed Flag-M2 immunoaffinity resin (Sigma). The CAK complex, by nature of the Flag tagged Cdk7 protein, was allowed to bind to the Flag antibody of the resin overnight at 4° C. with gentle rocking. The resin was washed 4 times with 5 resin volumes of lysis buffer and the bound proteins were eluted by competition with 0.5 mg/mL Flag peptide ([…], American Peptide Co, Inc., SEQ ID NO: 16) in a total of 2 resin volumes. To remove the Flag peptide, the eluted material was applied to PD-10 gel filtration columns (Pharmacia) under conditions recommended by the manufacturer.
# Measurement of CAK kinase activity was accomplished using an antibody methodology in which a Europium labeled antibody binds preferentially to serine phosphorylated GST-CTD substrate. The long-lived europium label fluorescence allows a greater signal-to-noise ratio due to the delay in reading the emission wavelength, thereby eliminating signals from immediate fluorescence and fluorescent pharmaceutical screening compounds.
# The time-resolved-fluorescence assay for the CAK kinase activity is performed as follows. In a well of a black glutathione coated 96 well micro titer plate (Pierce Chemical, No. 15360), the following reagents were added: 1) 25 ul substrate solution containing 500 ng purified GST-CTD in a buffer having 50 mM Hepes pH 7.5, 10 mM MgCl2, 1 mM DTT, 0.2 mM PMSF, 40 uM Na-oVO4, and 22 uM ATP (as a background control, the buffer, including ATP but not substrate was added); 2) 2.5 ul of screening compounds in a diluent containing 30% DMSO/25 mM Hepes pH7.5 (As a control, the diluent only was added. Typically the final concentration of compound is 1 uM); and 3) 250 ng CAK enzyme complex in enzyme buffer containing 25 ul of 50 mM Hepes pH 7.5, 10 mM MgCl2, 1 mM DTT, 0.2 mM PMSF, and 40 uM Na-oVO4. The micro titer plate was shaken for 2 minutes on a titer plate shaker and allowed to incubate at 30° C. for 20 minutes.
# Subsequently, Kinase Stop Solution (75 mM EDTA, 0.2 mM PMSF, 1 mM DTT, 120 uM Na oVO4 in PBS) was added (50 ul/well). The plate was shaken for 2 minutes and incubated overnight at room temperature to allow substrate binding to the wells. The plate contents were flicked out, and the wells of the plate were washed 4 times with 350 ul of wash buffer (Delphia wash buffer, Perkin-Elmer, Inc.). The plate was tapped dry. […]
# [2] = target: T2, Focal Adhesion Kinase (full-length Flag-tagged human FAK) (Homo sapiens, UniProt Q05397); assay: in vitro FAK ELISA kinase assay; assay type: biochemical; details: compound 10 uM, ATP 2 uM; for inhibition at 10 µM: read-out: FAK % Inhib ave: 10 uM
# T2 construct: a purified recombinant full-length Flag-tagged human FAK protein; Flag; made in house; host or cells: baculovirus infected insect cells
# T2 sequence (Q05397 whole entry): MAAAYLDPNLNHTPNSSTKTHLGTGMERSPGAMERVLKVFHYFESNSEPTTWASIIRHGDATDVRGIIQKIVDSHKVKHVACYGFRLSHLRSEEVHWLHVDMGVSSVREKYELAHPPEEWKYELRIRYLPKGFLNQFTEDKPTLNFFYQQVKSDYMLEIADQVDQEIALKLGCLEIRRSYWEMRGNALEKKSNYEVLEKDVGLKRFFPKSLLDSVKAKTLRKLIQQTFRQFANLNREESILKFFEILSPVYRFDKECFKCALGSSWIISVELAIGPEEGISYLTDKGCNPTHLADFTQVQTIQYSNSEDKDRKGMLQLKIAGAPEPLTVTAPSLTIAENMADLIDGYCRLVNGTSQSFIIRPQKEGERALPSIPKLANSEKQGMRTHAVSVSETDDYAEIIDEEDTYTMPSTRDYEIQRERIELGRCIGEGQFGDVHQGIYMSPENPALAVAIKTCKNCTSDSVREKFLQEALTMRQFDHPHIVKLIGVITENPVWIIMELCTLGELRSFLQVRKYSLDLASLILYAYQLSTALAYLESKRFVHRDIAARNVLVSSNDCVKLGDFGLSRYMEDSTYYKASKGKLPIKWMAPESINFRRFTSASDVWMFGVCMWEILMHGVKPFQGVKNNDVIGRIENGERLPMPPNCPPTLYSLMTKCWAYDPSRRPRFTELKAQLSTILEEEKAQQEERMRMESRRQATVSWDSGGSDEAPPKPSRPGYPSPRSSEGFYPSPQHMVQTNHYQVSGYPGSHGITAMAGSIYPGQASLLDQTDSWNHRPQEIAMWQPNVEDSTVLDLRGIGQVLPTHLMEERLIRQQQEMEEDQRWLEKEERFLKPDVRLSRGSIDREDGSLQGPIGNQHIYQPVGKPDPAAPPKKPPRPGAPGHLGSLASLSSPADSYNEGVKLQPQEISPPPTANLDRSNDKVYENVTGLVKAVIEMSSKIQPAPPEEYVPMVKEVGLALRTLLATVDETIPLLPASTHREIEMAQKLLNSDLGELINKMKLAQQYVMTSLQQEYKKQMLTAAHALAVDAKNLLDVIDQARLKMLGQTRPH
# Description: Compound effects on the tyrosine kinase activity of Focal Adhesion Kinase were assessed with an in vitro FAK ELISA kinase assay. This assay measures the incorporation of phosphate from ATP into a FAK substrate protein using an antibody specific for phospho-tyrosine.
# 500 ng of FAKsubstrate, a purified recombinant fusion protein of GST and a 73 amino acid region surrounding the Tyr397 human FAK autophosphorylation site, was coated in a high-protein binding polystyrene 96 well plate overnight in a buffer containing 50 mM Hepes, pH 7.5, 150 mM NaCl, 0.1 mM Na-oVO4, 0.1 mM NaF and 1 protease inhibitor tablet/10 mL (Complete Mini-EDTA-free, Roche). The next day this solution was removed and the wells were incubated with 0.2% BSA in 50 mM Hepes, pH 7.5, 150 mM NaCl, 0.2 mM PMSF for 1 hour at 30° C. to block unoccupied protein binding sites. The wells were then washed with 50 mM Hepes, pH 7.5, 150 mM NaCl, 0.1% Tween 20. The kinase reaction was performed with 25 ng/well of FAK enzyme (a purified recombinant full-length Flag-tagged human FAK protein made in baculovirus infected insect cells) in 0.1 mL of a buffer containing 25 mM Hepes, pH 7.5, 5 mM MgCl2, 0.5 mM MnCl2, 10 uM NaoVO4, 0.2 mM PMSF. Compounds were added from 30% DMSO stock solutions for a screening concentration of 10 uM or IC50 determinations from 50 uM in half-log dilutions. The reaction is initiated with addition of ATP to a final concentration of 2 uM and incubated at 30° C. for 1 hour. Following the kinase reaction step, the wells were washed and incubated with 50 ng of Horseradish Peroxidase conjugated anti-phosphotyrosine antibody (PT-66 HRP, Sigma) in 0.1 mL wash buffer for 1 hour at 30° C. Wells were then washed and 0.1 mL HRP substrate, Tetra-methyl Benzidine (Sigma) was added and the color reaction allowed to proceed for 2-3 minutes followed by the addition of 0.1 mL of 1N H2SO4 to stop the HRP reaction. Percent inhibition of FAK kinase activity was calculated by comparing compound containing wells to wells treated with diluent only. Background was subtracted from all wells and was defined as the activity of FAK using 500 ng/well of BSA as a substrate. IC50 values were obtained using Prism data analysis software.
inhibition at 20 µM [1],inhibition at 10 µM [2],CAK % inhib; 20 uM [1],FAK % Inhib ave: 10 uM [2],Compound
99.5%,81.5%,–,–,"CCN(CC)CCCOc1ccc(Nc2ncc3nnn(-c4ccc5c(c4)CCC5)c3n2)cc1 [Compound 87, [4-(3-Diethylamino-propoxy)-phenyl]-(3-indan-5-yl-3H-[1,2,3]triazolo[4,5-d]pyrimidin-5-yl)-amine]"
44.9%,29.2%,–,–,NS(=O)(=O)c1ccccc1Nc1ncc2nnn(-c3ccccc3S(N)(=O)=O)c2n1 [Compound 46]
68.1%,87.2%,–,–,CCN(CC)CCNC(=O)c1ccc(Nc2ncc3nnn(-c4cc[nH]n4)c3n2)cc1 [Compound 66]
25.9%,12.4%,–,–,"CCCCCOc1ccc(Nc2ncc3nnn(-c4ccc5c(c4)CCC5)c3n2)cc1 [Compound 5, (3-Indan-5-yl-3H-[1,2,3]triazolo[4,5-d]pyrimidin-5-yl)-(4-pentyloxy-phenyl)-amine]"
99.7%,58.1%,–,–,"CN1CCN(CCCNC(=O)c2cccc(Nc3ncc4nnn(-c5ccc6c(c5)CCC6)c4n3)c2)CC1 [Compound 81, 3-(3-Indan-5-yl-3H-[1,2,3]triazolo[4,5-d]pyrimidin-5-ylamino)-N-[3-(4-methyl-piperazin-1-yl)-propyl]-benzamide]"
-1.1%,-7%,–,–,"CNC(=O)c1cccc(Nc2ncc3nnn(-c4cccc(-c5ccnc(C)n5)c4)c3n2)c1 [Compound 37, N-Methyl-3-{3-[3-(2-methyl-pyrimidin-4-yl)-phenyl]-3H-[1,2,3]triazolo[4,5-d]pyrimidin-5-ylamino}-benzamide]"
87.3%,75.5%,–,–,"CCN(CC)CCNC(=O)c1ccc(Nc2ncc3nnn(-c4ccc(N5CCN(Cc6ccccc6)CC5)cc4)c3n2)cc1 [Compound 56, 4-{3-[4-(4-Benzyl-piperazin-1-yl)-phenyl]-3H-[1,2,3]triazolo[4,5-d]pyrimidin-5-ylamino}-N-(2-diethylamino-ethyl)-benzamide]"
42.7%,54.7%,–,–,"CCN(CC)CCNC(=O)c1ccc(-n2nnc3cnc(Nc4cccc(-c5nnn[nH]5)c4)nc32)cc1 [Compound 65, N-(2-Diethylamino-ethyl)-4-{5-[3-(1H-tetrazol-5-yl)-phenylamino]-[1,2,3]triazolo[4,5-d]pyrimidin-3-yl}-benzamide]"
96.9%,98.9%,–,–,"CCN(CC)CCNC(=O)c1ccc(Nc2ncc3nnn(-c4ccc5c(c4)CCC5)c3n2)cc1 [Compound 22, N-(2-Diethylamino-ethyl)-4-(3-indan-5-yl-3H-[1,2,3]triazolo[4,5-d]pyrimidin-5-ylamino)-benzamide]"
16.3%,11%,–,–,"c1cc(-c2csnn2)ccc1Nc1ncc2nnn(-c3ccc4c(c3)CCC4)c2n1 [Compound 29, (3-Indan-5-yl-3H-[1,2,3]triazolo[4,5-d]pyrimidin-5-yl)-(4-[1,2,3]thiadiazol-4-yl-phenyl)-amine]"
-37.4%,7.44%,–,–,CCCCNS(=O)(=O)c1cccc(Nc2ncc3nnn(-c4cccc(S(=O)(=O)NCCCC)c4)c3n2)c1 [Compound 48]
47.5%,31.2%,–,–,"O=C(NCCN1CCOCC1)c1cccc(Nc2ncc3nnn(-c4ccc5c(c4)CCC5)c3n2)c1 [Compound 73, 3-(3-Indan-5-yl-3H-[1,2,3]triazolo[4,5-d]pyrimidin-5-ylamino)-N-(2-morpholin-4-yl-ethyl)-benzamide]"
76%,80.5%,–,–,"CN(C)CC(O)COc1ccc(Nc2ncc3nnn(-c4ccc(C5CCCCC5)cc4)c3n2)cc1 (stereo not drawn) [Compound 15, 1-{4-[3-(4-Cyclohexyl-phenyl)-3H-[1,2,3]triazolo[4,5-d]pyrimidin-5-ylamino]-phenoxy}-3-dimethylamino-propan-2-ol]"
103%,92.3%,–,–,"CN(CCO)CCCOc1ccc(Nc2ncc3nnn(-c4ccc5c(c4)CCC5)c3n2)cc1 [Compound 88, 2-({3-[4-(3-Indan-5-yl-3H-[1,2,3]triazolo[4,5-d]pyrimidin-5-ylamino)-phenoxy]-propyl}-methyl-amino)-ethanol]"
47.5%,31.7%,–,–,"CN(CCCOc1ccc(Nc2ncc3nnn(-c4ccc5c(c4)CCC5)c3n2)cc1)Cc1ccccc1 [Compound 90, {4-[3-(Benzyl-methyl-amino)-propoxy]-phenyl}-(3-indan-5-yl-3H-[1,2,3]triazolo[4,5-d]pyrimidin-5-yl)-amine]"
63.8%,56.5%,–,–,"CCN(CC)CCNC(=O)c1ccc(Nc2ncc3nnn(C4CCCC4)c3n2)cc1 [Compound 68, 4-(3-Cyclopentyl-3H-[1,2,3]triazolo[4,5-d]pyrimidin-5-ylamino)-N-(2-diethylamino-ethyl)-benzamide]"
-58.9%,46.6%,–,–,"CCN(CC)CCNC(=O)c1ccc(Nc2ncc3nnn(-c4cccc(-c5cnco5)c4)c3n2)cc1 [Compound 84, N-(2-Diethylamino-ethyl)-4-[3-(3-oxazol-5-yl-phenyl)-3H-[1,2,3]triazolo[4,5-d]pyrimidin-5-ylamino]-benzamide]"
–,–,42.00%,28.57%,"CCN(CC)CCOC(=O)c1ccc(Nc2ncc3nnn(-c4ccc5c(c4)CCC5)c3n2)cc1 [Compound 33, 4-(3-Indan-5-yl-3H-[1,2,3]triazolo[4,5-d]pyrimidin-5-ylamino)-benzoic acid 2-diethylamino-ethyl ester]"
